Measured values as given in patent US9643970B2, “Substituted imidazo [1,5-a]pyrazines as PDE9 inhibitors” (H Lundbeck A/S, priority 2012, dated 2017).
Like-named read-outs stand apart in the source and are kept apart here.

Biological target: PDE9 (Homo sapiens, UniProt O76083)
Assay: PDE9 inhibition assay
Format: biochemical
Method: Reactions are initiated by addition of the cyclic nucleotide substrate, and reactions are allowed to proceed for one hr at room temperature before being terminated through mixing with 15 uL 8 mg/mL yttrium silicate SPA beads (Amersham). […] IC50 values were calculated by non linear regression using XLfit (IDBS).

[1] = SPA assay, 10 nM 3H-cAMP, 1 hour incubation, read-out: IC50

Chain of PDE9 (O76083 whole entry): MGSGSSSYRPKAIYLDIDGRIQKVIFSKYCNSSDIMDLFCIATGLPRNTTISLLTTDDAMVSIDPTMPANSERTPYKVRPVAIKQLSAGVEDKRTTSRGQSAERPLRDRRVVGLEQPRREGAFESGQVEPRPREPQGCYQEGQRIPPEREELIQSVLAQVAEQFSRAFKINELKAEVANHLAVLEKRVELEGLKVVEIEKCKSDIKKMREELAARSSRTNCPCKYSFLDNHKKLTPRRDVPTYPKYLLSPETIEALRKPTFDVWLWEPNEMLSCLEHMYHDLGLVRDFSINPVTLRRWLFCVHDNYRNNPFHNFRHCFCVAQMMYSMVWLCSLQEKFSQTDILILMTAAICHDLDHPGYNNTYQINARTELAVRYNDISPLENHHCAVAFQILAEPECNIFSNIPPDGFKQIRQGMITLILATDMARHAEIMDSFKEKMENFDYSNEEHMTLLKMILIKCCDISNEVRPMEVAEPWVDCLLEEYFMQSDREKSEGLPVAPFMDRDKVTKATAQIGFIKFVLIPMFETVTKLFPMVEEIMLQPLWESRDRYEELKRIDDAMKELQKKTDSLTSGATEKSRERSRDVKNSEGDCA

CC(NCC1CCCCC1)c1cn2c(-c3ccccc3)ncc2c(=O)[nH]1 (stereo not shown) [Compound 2, 6-[1-(cyclohexylmethylamino)ethyl]-3-phenyl-7h-imidazo[1,5-a]pyrazin-8-one]
IC50 [1]: 187 nM

O=c1[nH]c(CN2CC(Oc3ncccn3)C2)cn2c(C3CCCC3)ncc12 [Compound 39, 3-cyclopentyl-6-[(3-pyrimidin-2-yloxyazetidin-1-yl)methyl]-7h-imidazo[1,5-a]pyrazin-8-one]
IC50 [1]: 22 nM

CC(c1cn2c(-c3ccccc3)ncc2c(=O)[nH]1)N1CC(c2ccccc2)C1 (stereo not shown) [Compound 18, 3-phenyl-6-[1-(3-phenylazetidin-1-yl)ethyl]-7h-imidazo[1,5-a]pyrazin-8-one]
IC50: 54 nM

O=c1[nH]c(CN2CC(Oc3c(F)cccc3F)C2)cn2c(-c3ccc(F)cc3)ncc12 [Compound 121, 6-[[3-(2,6-difluorophenoxy)azetidin-1-yl]methyl]-3-(4-fluorophenyl)-7h-imidazo[1,5-a]pyrazin-8-one]
IC50 [1]: 41 nM

CC(c1cn2c(C3CCCC3)ncc2c(=O)[nH]1)N1CC(Oc2ccc(F)cc2)C1 (stereo not shown) [Compound 47, 3-cyclopentyl-6-[1-[3-(4-fluorophenoxy)azetidin-1-yl]ethyl]-7h-imidazo[1,5-a]pyrazin-8-one]
IC50: 3 nM

COc1ccc(C2CN(C(C)c3cn4c(-c5ccc(F)cc5)ncc4c(=O)[nH]3)C2)cc1 (stereo not shown) [Compound 126, 3-(4-fluorophenyl)-6-[1-[3-(4-methoxyphenyl)azetidin-1-yl]ethyl]-7h-imidazo[1,5-a]pyrazin-8-one]
IC50: 70 nM

O=c1[nH]c(CN2CC(Oc3ncccn3)C2)cn2c(-c3ccccc3)ncc12 [Compound 5, 3-phenyl-6-[(3-pyrimidin-2-yloxyazetidin-1-yl)methyl]-7h-imidazo[1,5-a]pyrazin-8-one]
IC50: 30 nM

O=c1[nH]c(CN2CC(Oc3ccc(OC(F)(F)F)cc3)C2)cn2c(C3CCOCC3)ncc12 [Compound 64, 3-tetrahydropyran-4-yl-6-[[3-[4-(trifluoromethoxy)phenoxy]azetidin-1-yl]methyl]-7h-imidazo[1,5-a]pyrazin-8-one]
IC50 [1]: 13 nM

O=c1[nH]c(CN2CC(Oc3ccc(Cl)cc3)C2)cn2c(-c3ccc(F)cc3)ncc12 [Compound 118, 6-[[3-(4-chlorophenoxy)azetidin-1-yl]methyl]-3-(4-fluorophenyl)-7h-imidazo[1,5-a]pyrazin-8-one]
IC50 [1]: 42 nM

COC(=O)C1CN(Cc2ccccc2)CC1c1cn2c(-c3ccccc3)ncc2c(=O)[nH]1 (stereo not shown) [Compound 10, methyl 1-benzyl-4-(8-oxo-3-phenyl-7h-imidazo[1,5-a]pyrazin-6-yl)pyrrolidine-3-carboxylate]
IC50 [1]: 43 nM

Cc1cc(C)nc(OC2CN(Cc3cn4c(-c5ccccc5)ncc4c(=O)[nH]3)C2)n1 [Compound 14, 6-[[3-(4,6-dimethylpyrimidin-2-yl)oxyazetidin-1-yl]methyl]-3-phenyl-7h-imidazo[1,5-a]pyrazin-8-one]
IC50: 50 nM

O=c1[nH]c(CN2CC(Oc3ccc(F)cc3)C2)cn2c(-c3ccccc3)ncc12 [Compound 23, 6-[[3-(4-fluorophenoxy)azetidin-1-yl]methyl]-3-phenyl-7h-imidazo[1,5-a]pyrazin-8-one]
IC50 [1]: 16 nM

CC(c1cn2c(C3CCCC3)ncc2c(=O)[nH]1)N1CC(Oc2ncccn2)C1 (stereo not shown) [Compound 42, 3-cyclopentyl-6-[1-(3-pyrimidin-2-yloxyazetidin-1-yl)ethyl]-7h-imidazo[1,5-a]pyrazin-8-one]
IC50 [1]: 8 nM

CC(c1cn2c(-c3ccc(F)cc3)ncc2c(=O)[nH]1)N1CC(Oc2ccc(OC(F)(F)F)cc2)C1 (stereo not shown) [Compound 120, 3-(4-fluorophenyl)-6-[1-[3-[4-(trifluoromethoxy)phenoxy]azetidin-1-yl]ethyl]-7h-imidazo[1,5-a]pyrazin-8-one]
IC50 [1]: 35 nM

O=c1[nH]c(CN2CC(Oc3ccccc3)C2)cn2c(-c3ccccc3)ncc12 [Compound 21, 6-[(3-phenoxyazetidin-1-yl)methyl]-3-phenyl-7h-imidazo[1,5-a]pyrazin-8-one]
IC50 [1]: 8 nM

O=c1[nH]c(CN2CCC(Oc3ncccn3)C2)cn2c(C3CCOCC3)ncc12 (stereo not shown) [Compound 84, 6-[(3-pyrimidin-2-yloxypyrrolidin-1-yl)methyl]-3-tetrahydropyran-4-yl-7h-imidazo[1,5-a]pyrazin-8-one]
IC50 [1]: 110 nM

CC1CN(Cc2ccccn2)CC1c1cn2c(-c3ccc(F)cc3)ncc2c(=O)[nH]1 (stereo not shown) [Compound 114, 3-(4-fluorophenyl)-6-[4-methyl-1-(2-pyridylmethyl)pyrrolidin-3-yl]-7h-imidazo[1,5-a]pyrazin-8-one]
IC50 [1]: 7 nM

O=c1[nH]c(CN2CC(Oc3ccc(C(F)(F)F)cc3)C2)cn2c(-c3ccc(F)cc3)ncc12 [Compound 109, 3-(4-fluorophenyl)-6-[[3-[4-(trifluoromethyl)phenoxy]azetidin-1-yl]methyl]-7h-imidazo[1,5-a]pyrazin-8-one]
IC50 [1]: 28 nM

CC(c1cn2c(-c3ccccc3)ncc2c(=O)[nH]1)N1CC(c2ccc(C#N)cc2)C1 (stereo not shown) [Compound 38, 4-[1-[1-(8-oxo-3-phenyl-7h-imidazo[1,5-a]pyrazin-6-yl)ethyl]azetidin-3-yl]benzonitrile]
IC50 [1]: 23 nM

CC(c1cn2c(-c3ccccc3)ncc2c(=O)[nH]1)N1CC(c2ccc(F)cc2)C1 (stereo not shown) [Compound 28, 6-[1-[3-(4-fluorophenyl)azetidin-1-yl]ethyl]-3-phenyl-7h-imidazo[1,5-a]pyrazin-8-one]
IC50 [1]: 53 nM

CC(C)OC1CN(Cc2cn3c(C4CCCC4)ncc3c(=O)[nH]2)C1 [Compound 57, 3-cyclopentyl-6-[(3-isopropoxyazetidin-1-yl)methyl]-7h-imidazo[1,5-a]pyrazin-8-one]
IC50: 17 nM

O=c1[nH]c(CN2CC(c3ccccc3)C2)cn2c(-c3ccccc3)ncc12 [Compound 8, 3-phenyl-6-[(3-phenylazetidin-1-yl)methyl]-7h-imidazo[1,5-a]pyrazin-8-one]
IC50 [1]: 78 nM

Cc1cnc(CN2CC(C)C(c3cn4c(C5CCOCC5)ncc4c(=O)[nH]3)C2)cn1 (stereo not shown) [Compound 102, 6-[4-methyl-1-[(5-methylpyrazin-2-yl)methyl]pyrrolidin-3-yl]-3-tetrahydropyran-4-yl-7h-imidazo[1,5-a]pyrazin-8-one]
IC50 [1]: 10 nM

O=c1[nH]c(CN2CC(c3ccc(F)cc3)C2)cn2c(-c3ccc(F)cc3)ncc12 [Compound 76, 3-(4-fluorophenyl)-6-[[3-(4-fluorophenyl)azetidin-1-yl]methyl]-7h-imidazo[1,5-a]pyrazin-8-one]
IC50 [1]: 33 nM

O=c1[nH]c(CN2CC(Oc3cccc(F)c3)C2)cn2c(-c3ccccc3)ncc12 [Compound 16, 6-[[3-(3-fluorophenoxy)azetidin-1-yl]methyl]-3-phenyl-7h-imidazo[1,5-a]pyrazin-8-one]
IC50 [1]: 97 nM

CCc1ccc(C2CN(C(C)c3cn4c(-c5ccccc5)ncc4c(=O)[nH]3)C2)cc1 (stereo not shown) [Compound 30, 6-[1-[3-(4-ethylphenyl)azetidin-1-yl]ethyl]-3-phenyl-7h-imidazo[1,5-a]pyrazin-8-one]
IC50: 16 nM

O=c1[nH]c(CN2CC(c3ccc(C(F)(F)F)cn3)C2)cn2c(-c3ccc(F)cc3)ncc12 [Compound 77, 3-(4-fluorophenyl)-6-[[3-[5-(trifluoromethyl)-2-pyridyl]azetidin-1-yl]methyl]-7h-imidazo[1,5-a]pyrazin-8-one]
IC50 [1]: 4 nM

O=c1[nH]c(CN2CC(Oc3ccncc3)C2)cn2c(C3CCOCC3)ncc12 [Compound 82, 6-[[3-(4-pyridyloxy)azetidin-1-yl]methyl]-3-tetrahydropyran-4-yl-7h-imidazo[1,5-a]pyrazin-8-one]
IC50 [1]: 14 nM

O=c1[nH]c(CN2CC(Oc3ccc(F)cc3)C2)cn2c(C3CCOCC3)ncc12 [Compound 75, 6-[[3-(4-fluorophenoxy)azetidin-1-yl]methyl]-3-tetrahydropyran-4-yl-7h-imidazo[1,5-a]pyrazin-8-one]
IC50: 115 nM

O=c1[nH]c(CN2CC(Oc3ccccc3F)C2)cn2c(C3CCOCC3)ncc12 [Compound 50, 6-[[3-(2-fluorophenoxy)azetidin-1-yl]methyl]-3-tetrahydropyran-4-yl-7h-imidazo[1,5-a]pyrazin-8-one]
IC50: 21 nM

O=c1[nH]c(CN2CCC(Oc3ncccn3)C2)cn2c(-c3ccc(F)cc3)ncc12 (stereo not shown) [Compound 86, 3-(4-fluorophenyl)-6-[(3-pyrimidin-2-yloxypyrrolidin-1-yl)methyl]-7h-imidazo[1,5-a]pyrazin-8-one]
IC50 [1]: 233 nM

O=c1[nH]c(CN2CC(Oc3ccncc3)C2)cn2c(-c3ccc(F)cc3)ncc12 [Compound 87, 3-(4-fluorophenyl)-6-[[3-(4-pyridyloxy)azetidin-1-yl]methyl]-7h-imidazo[1,5-a]pyrazin-8-one]
IC50 [1]: 42 nM

CN(C)c1ccc(C2CN(Cc3cn4c(C5CCCC5)ncc4c(=O)[nH]3)C2)cc1 [Compound 48, 3-cyclopentyl-6-[[3-(4-dimethylaminophenyl)azetidin-1-yl]methyl]-7h-imidazo[1,5-a]pyrazin-8-one]
IC50 [1]: 40 nM

O=c1[nH]c(CN2CC(Oc3cnc4ccccc4n3)C2)cn2c(-c3ccccc3)ncc12 [Compound 13, 3-phenyl-6-[(3-quinoxalin-2-yloxyazetidin-1-yl)methyl]-7h-imidazo[1,5-a]pyrazin-8-one]
IC50 [1]: 7 nM

CN(C)c1ccc(C2CN(Cc3cn4c(-c5ccc(F)cc5)ncc4c(=O)[nH]3)C2)cc1 [Compound 51, 6-[[3-(4-dimethylaminophenyl)azetidin-1-yl]methyl]-3-(4-fluorophenyl)-7h-imidazo[1,5-a]pyrazin-8-one]
IC50 [1]: 7 nM

O=c1[nH]c(CN2CC(OCc3ccccc3)C2)cn2c(C3CCOCC3)ncc12 [Compound 67, 6-[(3-benzyloxyazetidin-1-yl)methyl]-3-tetrahydropyran-4-yl-7h-imidazo[1,5-a]pyrazin-8-one]
IC50 [1]: 20 nM

CC1CN(Cc2ccc(F)cc2)CC1c1cn2c(-c3ccc(Cl)cc3)ncc2c(=O)[nH]1 (stereo not shown) [Compound 110, 3-(4-chlorophenyl)-6-[1-[(4-fluorophenyl)methyl]-4-methyl-pyrrolidin-3-yl]-7h-imidazo[1,5-a]pyrazin-8-one]
IC50 [1]: 36 nM
